Data taken from paper PMC9862305 (Plants, 2023).
Values after ≈ are worked out from the molar mass of the structure shown. Read-outs that look alike come from different tables or passages of the source.

Tests used:
[1] = molecular target: T1, Acetylcholinesterase (AChE) from Electrophorus electricus (Electrophorus electricus, UniProt O42275); assay: biochemical
T1 construct: purchased Sigma-Aldrich type VI-S (catalogue number not given)
Procedure: (§1) The cholinesterase inhibitory potentials of the isolated compounds were evaluated via a spectrophotometric approach, which was adapted by Ellman’s method. […] Enzyme inhibition is a beneficial approach in order to evaluate the pharmacological potential of herbal remedies and pure substances. The inhibition of the AChE and BChE enzymes has been linked to the alleviation of symptoms associated with memory impairment in AD [10]. […] Methoxylation may decrease or increase activity depending on the type of flavonoids (flavones, flavanones, or isoflavones). […] Moreover, the hydrogenation of the double bond next to the carbonyl carbon in the structure of flavanones also decreases their affinity for cholinesterase inhibitory activity. However, there are some exceptions to the aforementioned observation of structure–activity relationship in the literature.
(§2) Acetylcholinesterase (AchE) from Electrophorus electricus (electrical eels, type VI-S, 200–1000 unit/mg), Butyrylcholinesterase from equine serum (lyophilized powder ≥ 500 units/mg protein), substrate acetylthiocholine iodide (ATCI), S-butyrylthiocholine iodide (BTCI), sodium phosphate monobasic, and sodium phosphate dibasic were purchased from Sigma-Aldrich (St. Louis, MO, USA). The coloring agent 5,5-dithio-bis-[2-nitrobenzoic acid] (DTNB), and β-sitosterol were obtained from Acros Organics (Acros Organics, NJ, USA). […] Silica gel (Kieselgel 60, 230–400 mesh atm) was purchased from Merck (Darmstadt, Germany). The solvents were of analytical grade and used as received.
(§3) Each run was carried out in triplicate on three consecutive days. Anti-BChE assays were performed using the same procedures described above but using BChE from equine serum (lyophilized powder ≥ 500 units/mg protein) instead of AChE and BTCI instead of ACTI. The final absorbance of each tested sample was calculated by subtracting the absorbance of their respective blank without enzyme addition. […] Then, the IC50 values of all tested samples and standards were calculated from the curve of the % inhibition versus concentration. (1) % Inhibition=Abs −ve control−Abs test sample/Abs −ve control×100

[2] = molecular target: T2, Butyrylcholinesterase from equine serum (Equus caballus, UniProt P81908); assay: biochemical
T2 construct: using BChE from equine serum (lyophilized powder ≥ 500 units/mg protein); purchased Sigma-Aldrich; host or cells: equine serum
Procedure: as §1, §2, §3

[3] = tested on: BChE; conditions: cited from earlier work
[4] = tested on: AChE; conditions: cited from earlier work; for IC50 (AChE inhibitory activity): individual compound
[5] = isolated compounds, Table 4, read-out: AChE (IC50)
[6] = read-out: AChE (IC50) µg/mL (converted)
[7] = luteolin isolated from Globularia meridionalis
[8] = AChE (IC50) µM, isolated compounds, Table 4
[9] = AChE (IC50) µg/mL, isolated compounds, Table 4
[10] = BChE (IC50) µM, isolated compounds, Table 4
[11] = BChE (IC50) µg/mL, isolated compounds, Table 4

T2 sequence (P81908 whole entry): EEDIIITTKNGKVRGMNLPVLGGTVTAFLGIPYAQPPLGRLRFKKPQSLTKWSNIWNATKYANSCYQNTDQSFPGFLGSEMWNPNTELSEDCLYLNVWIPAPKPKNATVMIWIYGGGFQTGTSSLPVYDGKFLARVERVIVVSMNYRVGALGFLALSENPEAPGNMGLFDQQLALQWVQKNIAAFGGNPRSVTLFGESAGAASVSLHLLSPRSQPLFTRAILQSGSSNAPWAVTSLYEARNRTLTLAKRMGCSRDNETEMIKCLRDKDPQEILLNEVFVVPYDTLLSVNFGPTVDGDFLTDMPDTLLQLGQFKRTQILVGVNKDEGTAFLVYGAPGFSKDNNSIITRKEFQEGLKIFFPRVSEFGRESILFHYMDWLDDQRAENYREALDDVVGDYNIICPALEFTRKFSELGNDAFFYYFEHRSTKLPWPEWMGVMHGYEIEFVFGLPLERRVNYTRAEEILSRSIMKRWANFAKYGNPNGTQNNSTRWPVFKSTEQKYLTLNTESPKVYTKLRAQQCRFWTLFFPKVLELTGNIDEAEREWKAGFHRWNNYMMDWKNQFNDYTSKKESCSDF
T1 sequence (O42275 24-633): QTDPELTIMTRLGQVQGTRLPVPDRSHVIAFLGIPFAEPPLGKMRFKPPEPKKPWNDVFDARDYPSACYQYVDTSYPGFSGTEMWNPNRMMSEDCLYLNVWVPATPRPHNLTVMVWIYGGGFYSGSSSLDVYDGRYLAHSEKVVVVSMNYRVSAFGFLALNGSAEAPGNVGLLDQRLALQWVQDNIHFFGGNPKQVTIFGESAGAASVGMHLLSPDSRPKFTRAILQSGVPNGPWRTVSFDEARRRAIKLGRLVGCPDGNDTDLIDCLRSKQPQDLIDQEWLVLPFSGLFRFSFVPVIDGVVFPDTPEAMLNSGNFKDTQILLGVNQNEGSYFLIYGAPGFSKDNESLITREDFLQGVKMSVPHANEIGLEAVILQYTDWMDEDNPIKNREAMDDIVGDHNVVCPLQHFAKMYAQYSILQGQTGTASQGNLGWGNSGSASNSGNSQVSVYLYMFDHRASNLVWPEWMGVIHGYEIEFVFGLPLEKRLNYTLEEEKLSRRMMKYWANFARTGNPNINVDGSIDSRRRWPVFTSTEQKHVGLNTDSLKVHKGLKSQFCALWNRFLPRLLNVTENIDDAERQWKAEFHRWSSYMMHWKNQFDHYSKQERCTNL

CCCCCCCCCCCCCCCCCCCCOC(=O)CCCCCCCCCCCCCCCCCCC [Compound 1, Arachidyl arachidate]
IC50 [1, 5]: 248.6 ± 2.24 µM
IC50 [1, 6]: 249 µM
IC50 ([2]; read-out: BChE (IC50) µg/mL): > 253 µM

O=c1cc(-c2ccc(O)c(O)c2)oc2cc(O)cc(O)c12 [Compound 2, Luteolin]
IC50 for BuChE [3, 7]: 37.2 ± 0.5 µg/mL
IC50 for AChE [4, 7]: 25.2 ± 0.4 µg/mL
IC50 ([4]; luteolin isolated from Rhizoma drynariae, read-out: AChE inhibition potential): 17.3 ± 0.23 µM
IC50 [1, 8]: 20.5 ± 1.1 µM
IC50 [1, 9]: 20.5 µM
IC50 [2, 10]: 46.2 ± 2.2 µM
IC50 [2, 11]: 46.2 µM

CC[C@H](CC[C@@H](C)[C@H]1CC[C@H]2[C@@H]3CC=C4C[C@@H](O)CC[C@]4(C)[C@H]3CC[C@]12C)C(C)C [Compound 3, β-sitosterol]
IC50 (AChE inhibitory activity) [4]: 55 µg/mL (≈ 133 µM)
IC50 [1, 8]: 137 ± 8.66 µM
IC50 [1, 9]: 137 µM
IC50 [2, 10]: 157 ± 7.26 µM
IC50 [2, 11]: 157 µM

CC[C@H](/C=C/[C@@H](C)[C@H]1CC[C@H]2[C@@H]3CC=C4C[C@@H](O)CC[C@]4(C)[C@H]3CC[C@]12C)C(C)C [Compound 4, Stigmasterol]
IC50 (AChE inhibitory activity) [4]: 63 µg/mL (≈ 153 µM)

O=C(O)/C=C/c1ccccc1 [Compound 5, Cinnamic acid]
IC50 [2, 10]: 373 ± 16.4 µM
IC50 [2, 11]: 373 µM

O=C(O)C=Cc1ccc(O)cc1 [Compound 6, 4-Hydroxycinnamic acid]
IC50 [1, 8]: 43.4 ± 0.61 µM
IC50 [1, 9]: 43.4 µM
IC50 [2, 10]: 409 ± 14.8 µM
IC50 [2, 11]: 409 µM

O=Cc1ccc(CO)o1 [Compound 7]
IC50 [1, 5]: 158 ± 3.49 µM
IC50 [1, 6]: 158 µM
IC50 ([2]; read-out: BChE (IC50) µg/mL): > 793 µM

COc1ccc(-c2cc(=O)c3c(O)cc(O[C@@H]4O[C@H](CO)[C@H](O)[C@H](O)[C@H]4O)cc3o2)cc1 [acacetin-7-O-beta-D-galactopyranoside]
IC50 ([4]; read-out: IC50): 6.7 µM

COc1ccc(-c2cc(=O)c3c(O)cc(O)cc3o2)cc1 [acacetin]
IC50 ([4]; read-out: IC50): 65.3 µM

O=c1cc(-c2ccc(O)cc2)oc2cc(O)cc(O)c12 [apigenin]
IC50 ([4]; read-out: IC50 (AChE)): 34.4 ± 2.41 µM

O=c1cc(-c2ccccc2)oc2cc(O)c(O)c(O)c12 [baicalein]
IC50 ([4]; read-out: IC50 (AChE)): 46 ± 3.44 µM

Omifoate A [reference compound]
IC50 for BChE [3]: 9.07 µg/mL
IC50 for AChE [4]: 6.51 µg/mL
